Laboratory results reported in US20230173764A1, “SURGICAL SYSTEM AND METHODS OF USE” (priority 2021, published 2023).

What was measured:
myofibroblast formation = conditions: Ajmal et al. (2003); cited from earlier work
fibrinolysis = test: concentrations effective against fibrinolysis; conditions: one tenth of the doses used in the non-GLP acute porcine study
Source text: However, in some embodiments, however, higher doses of tranexamic acid are used for topical applications to account for tranexamic acid being widely distributed throughout the extracellular and intracellular compartments when given preoperatively.

[1] = given preoperatively; cited from earlier work

| SMILES | myofibroblast formation (myofibroblast formation) | effective in reversing fibrinolysis (fibrinolysis) | time to reach plasma concentrations [1] |
| --- | --- | --- | --- |
| O=S(=O)([O-])CCS.[Na+] [MESNA, sodium 2-mercaptoethane sulfonate] | diminish myofibroblast formation |  |  |
| NC[C@H]1CC[C@H](C(=O)O)CC1 [tranexamic acid] |  | effective | 5 to 15 min |
